{
  "source": "paper PMC7108851",
  "about": "(Journal of Virology, 2020)",
  "key": {"WT HIV-1CH185": {"test_system": "WT HIV-1CH185", "assay": "Drug susceptibility assay in TZM-bl cells", "format": "cell-based", "details": "Human immunodeficiency virus 1, Fig. 9B", "experimental": "(§1) WT, Y181C, and Y181V HIV-1 stocks were phenotyped for resistance to RPV or RPV LA as previously described ([68]). Briefly, TZM-bl cells ([84]) were seeded at 5 × 10^3 cells in 96-well cell culture-treated, white-walled plates (PerkinElmer) in phenol red-free Dulbecco’s modified Eagle’s medium (DMEM; Life Technologies) supplemented with 10% fetal bovine serum (FBS; Atlanta Biologicals) and 100 U/ml penicillin, 100 μg/ml streptomycin, and 0.292 mg/ml L-glutamine (PSG; Life Technologies). The following day, virus was added at a multiplicity of infection (MOI) of 0.05 in the presence or absence of RPV dilutions in triplicate. Plates were incubated at 37°C for 48 h, and luciferase was measured using Britelite Plus reagent (PerkinElmer) on a Luminoskan Ascent microplate luminometer (Thermo Scientiﬁc). Relative light units (RLU) were converted to percent infection by dividing the RLU of each drug dilution by the RLU of the 100% infection control in the absence of drug. Wells containing cells with no virus and no drug were used to normalize for background luciferase output. The EC50 was calculated by log transforming drug concentrations and using a four-parameter variable-slope nonlinear regression for curve-ﬁtting analysis using PRISM 6 (GraphPad)."}, "WT HIV-1NL4-BAL": {"test_system": "WT HIV-1NL4-BAL", "assay": "Drug susceptibility assay in TZM-bl cells", "format": "cell-based", "details": "Human immunodeficiency virus 1, BAL", "experimental": "as §1"}, "Y181C HIV-1NL4-BAL": {"test_system": "Y181C HIV-1NL4-BAL", "assay": "Drug susceptibility assay in TZM-bl cells", "format": "cell-based", "details": "Fig. 1A", "experimental": "as §1"}, "Y181V HIV-1CH185": {"test_system": "Y181V HIV-1CH185", "assay": "Drug susceptibility assay in TZM-bl cells", "format": "cell-based", "details": "Fig. 9B", "experimental": "as §1"}, "Y181V HIV-1NL4-BAL": {"test_system": "Y181V HIV-1NL4-BAL", "assay": "Drug susceptibility assay in TZM-bl cells", "format": "cell-based", "experimental": "as §1"}, "Y181I HIV-1NL4-BAL": {"test_system": "Y181I HIV-1NL4-BAL", "assay": "Drug susceptibility assay in TZM-bl cells", "format": "cell-based", "details": "Fig. 1A"}, "E138K": {"test_system": "E138K", "assay": "RPV resistance of RT mutant (data not shown)", "format": "cell-based, HIV-1"}, "HIV-1": {"test_system": "HIV-1", "details": "cited from earlier work"}, "Y181C": {"test_system": "Y181C", "parameters": "method as in PMID 19933797", "details": "cited from earlier work"}, "Y181V": {"test_system": "Y181V", "parameters": "method as in earlier work", "details": "cited from earlier work"}, "[1]": {"test_system": "simian immunodeficiency virus (SIV)", "details": "cited from earlier work"}, "[2]": {"details": "even at a high dose; cited from earlier work"}, "[3]": {"details": "cited from earlier work"}, "[4]": {"format": "in vivo, female BLT mice", "details": "for genital tract tissue concentrations relative to what has been observed in women: single dose TFV 150 mg/kg, higher than in women (54)", "experimental": "For RPV LA, 14 mice were injected intramuscularly in the flank with 3 mg RPV LA, for a dose of approximately 150 mg/kg. Two mice were euthanized at 1, 3, 6, 12, 24, 48, and 168 h postinjection. For TFV/FTC, an additional 12 mice were injected intraperitoneally with 150 mg/kg TFV and 100 mg/kg FTC. Two mice were euthanized at 1, 3, 6, 12, 24, and 48 h postinjection. Blood was drawn at each time point until euthanasia, and plasma was separated. At necropsy, female genital tract and colon/rectum were collected, weighed, and immediately flash-frozen dry.\nRPV, TFV, and FTC were extracted from mouse plasma with isotopically labeled internal standards (RPV-d6; TFV-^13C5; and FTC-^13C, ^15N2, respectively) using protein precipitation. TFV and FTC were separated on a Waters Atlantis T3 (2.1 by 50 mm, 3 μm) high-performance liquid chromatography (HPLC) column and RPV on an Xterra MS C18 (2.1 by 50 mm, 3.5 μm) HPLC column. The calibrated ranges were 1 to 4,000 ng/ml (TFV and FTC) or 1 to 10,000 ng/ml (RPV). Calibration standards and quality control (QC) samples were prepared in blank plasma with an acceptance criteria of ±20%.\nFrozen tissue biopsy specimens were homogenized in 1 ml of cold 70:30 acetonitrile–1 mM ammonium phosphate (pH 7.4). RPV, TFV, FTC, TFVdp, and FTCtp were extracted from tissue homogenate with the following isotopically labeled internal standards: RPV-d6; TFV-^13C5; FTC-^13C, ^15N2; and TFVdp-^13C5 (for both TFVdp and FTCtp). For quantification, analytes and internal standards were separated on a Waters Atlantis T-3 C18 HPLC column (TFV and FTC), a ThermoBioBasic AX HPLC column (TFVdp and FTCtp), or an Xterra MS C18 (2.1 by 50 mm, 3.5 μm) HPLC column (RPV). The calibrated ranges were 0.300 to 300 ng/ml (TFV, FTC, TFVdp, and FTCtp) and 1 to 200 ng/ml (RPV). Resulting concentrations were normalized to tissue weight assuming a tissue density of 1 g/ml ([86]) and reported as nanograms or femtomole per gram. Calibration standards and QC samples were prepared in blank tissue homogenate with an acceptance criteria of ±20%."}, "Y181I/V": {"test_system": "Y181I/V", "parameters": "method as in PMID 19933797", "details": "cited from earlier work"}},
  "note": "Values joined by “and” are separate entries in the source; they are usually repeats but may differ in a detail not shown here. Equal values may be shown once. Read-outs that look alike come from different tables or passages of the source.",
  "data": [
    {"molecule": "Cc1cc(/C=C/C#N)cc(C)c1Nc1ccnc(Nc2ccc(C#N)cc2)n1", "note": "[RPV, rilpivirine]", "values": [
      {"measurement": "EC50", "setting": "WT HIV-1CH185", "value": "0.21 ± 0.003", "unit": "nM"},
      {"measurement": "EC50", "setting": "WT HIV-1NL4-BAL; Fig. 1A, read-out: 50% effective concentration (EC50)", "value": "0.54 nM and 0.0002 µg/mL"},
      {"measurement": "EC50", "setting": "WT HIV-1NL4-BAL; Fig. 9B, read-out: average EC50", "value": "0.34 ± 0.07", "unit": "nM"},
      {"measurement": "EC50", "setting": "WT HIV-1NL4-BAL; RPV LA compared with soluble RPV, Fig. 2, read-out: EC50", "value": "0.6 nM and 0.00022 µg/mL"},
      {"measurement": "fold increase in EC50 (RPV resistance) vs WT HIV-1NL4-BAL", "setting": "Y181C HIV-1NL4-BAL", "value": 3, "unit": "fold"},
      {"measurement": "EC50", "setting": "Y181V HIV-1CH185; Human immunodeficiency virus 1, TZM-bl cells", "value": "12 ± 1.5", "unit": "nM"},
      {"measurement": "fold change from the level for WT HIV-1NL4-BAL", "setting": "Y181V HIV-1CH185; Y181V HIV-1CH185", "value": 36, "unit": "fold"},
      {"measurement": "EC50", "setting": "Y181V HIV-1NL4-BAL; Human immunodeficiency virus 1, BAL, TZM-bl cells, Fig. 9B", "value": "7.3 ± 1.3", "unit": "nM"},
      {"measurement": "fold change from the level for WT HIV-1NL4-BAL", "setting": "Y181V HIV-1NL4-BAL; Y181V HIV-1NL4-BAL, Fig. 9B", "value": 21, "unit": "fold"},
      {"measurement": "fold increase in EC50 (RPV resistance) vs WT HIV-1NL4-BAL", "setting": "Y181V HIV-1NL4-BAL; Y181V, TZM-bl cells, Fig. 1A", "value": 27, "unit": "fold"},
      {"measurement": "reduced susceptibility to RPV of virus encoding Y181V", "setting": "Y181V HIV-1NL4-BAL; discussion", "value": "> 20", "unit": "fold"},
      {"measurement": "RPV resistance of Y181V HIV-1", "setting": "Y181V HIV-1NL4-BAL; in the viruses used for this study (abstract)", "value": 30, "unit": "fold"},
      {"measurement": "fold increase in EC50 (RPV resistance) vs WT HIV-1NL4-BAL", "setting": "Y181I HIV-1NL4-BAL", "value": 23, "unit": "fold"},
      {"measurement": "resistance conferred by E138K", "setting": "E138K", "value": 2, "unit": "fold"},
      {"measurement": "protein-adjusted 90% effective concentration (EC90)", "setting": "HIV-1", "value": "0.012 µg/mL and 0.0121 µg/mL"},
      {"measurement": "EC90", "setting": "HIV-1; read-out: protein-adjusted EC90", "value": 33, "unit": "nM"},
      {"measurement": "resistance conferred by Y181C", "setting": "Y181C", "value": 3, "unit": "fold"},
      {"measurement": "resistance conferred by Y181V", "setting": "Y181V", "value": "approximately 20 fold"},
      {"measurement": "inhibition of simian immunodeficiency virus (SIV)", "setting": "[1]", "value": "does not inhibit"},
      {"measurement": "metabolism in macaques", "setting": "[2]", "value": "rapidly metabolized"},
      {"measurement": "protein binding", "setting": "[3]", "value": "highly protein bound"}
    ]},
    {"molecule": "CC(Cn1cnc2c(N)ncnc21)OCP(=O)(O)OP(=O)(O)OP(=O)(O)O", "note": "(stereo in doubt) [TFVdp, TFV diphosphate]", "values": [
      {"measurement": "genital tract tissue concentrations relative to what has been observed in women", "setting": "[4]", "value": "approximately 10 fold"}
    ]},
    {"molecule": "Nc1nc(=O)n([C@@H]2CS[C@H](COP(=O)(O)OP(=O)(O)OP(=O)(O)O)O2)cc1F", "note": "[FTCtp, FTC triphosphate]", "values": [
      {"measurement": "tissue FTC triphosphate (FTCtp) concentrations", "setting": "[4]; female genital tract, 12 h, 24 h, and 48 h postdose, single dose PK study", "value": "undetectable"}
    ]},
    {"molecule": "C[C@H](Cn1cnc2c(N)ncnc21)OCP(=O)(O)O", "note": "[TFV, tenofovir]", "values": [
      {"measurement": "genital tract tissue concentrations relative to what has been observed in women", "setting": "[4]", "value": "approximately 10 fold"}
    ]},
    {"molecule": "Cc1ccnc2c1NC(=O)c1cccnc1N2C1CC1", "note": "[nevirapine]", "values": [
      {"measurement": "resistance conferred by Y181C", "setting": "Y181C", "value": "> 40", "unit": "fold"},
      {"measurement": "resistance conferred by Y181I/V", "setting": "Y181I/V", "value": "> 60", "unit": "fold"}
    ]}
  ]
}
